Experimental findings from ChEMBL document CHEMBL1909046, “DrugMatrix in vitro pharmacology data” are described below.

Mitogen-activated protein kinase 3, sequence (P27361 whole entry): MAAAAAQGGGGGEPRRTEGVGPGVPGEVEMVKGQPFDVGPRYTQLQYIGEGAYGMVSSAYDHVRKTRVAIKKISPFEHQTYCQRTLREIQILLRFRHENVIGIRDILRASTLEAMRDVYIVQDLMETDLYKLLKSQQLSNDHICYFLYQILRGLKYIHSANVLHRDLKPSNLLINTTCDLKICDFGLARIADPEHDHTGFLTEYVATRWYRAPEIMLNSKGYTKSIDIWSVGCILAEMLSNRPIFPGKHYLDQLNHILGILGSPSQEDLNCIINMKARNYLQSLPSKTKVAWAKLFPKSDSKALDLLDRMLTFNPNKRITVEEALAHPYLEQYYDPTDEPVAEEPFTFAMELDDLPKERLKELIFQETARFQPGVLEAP

System in the first experiment: not listed separately
The experiment is described as follows: DRUGMATRIX: Interleukin IL-1 radioligand binding (ligand: [125I] interleukin 1beta). The format is cell membranes, Membrane. To be noted: nih3t3; Not Active = under 50% inhibition at 10 µM.
On to `CC(=O)N1CCN(c2ccc(OCC3COC(Cn4ccnc4)(c4ccc(Cl)cc4Cl)O3)cc2)CC1` (centres undefined) [KETOCONAZOLE], for which the IC50 result was “Not Active” and the Ki entry is given as “Not Active”.
Regarding `O=C(c1ccc(OCCN2CCCCC2)cc1)c1c(-c2ccc(O)cc2)sc2cc(O)ccc12` [RALOXIFENE], the IC50 entry was “Not Active” and the Ki result is listed as “Not Active”.

System in a further experiment: not listed separately
The experiment is described as follows: DRUGMATRIX: Sodium/nucleoside co-transporter radioligand binding (ligand: nitrobenzylthioinosine). The settings on record: Not Active = under 50% inhibition at 10 µM. It is filed as cell membranes, Cavia porcellus, Dunkin-Hartley, Cerebral cortex, Membrane.
For `O=C(c1ccc(OCCN2CCCCC2)cc1)c1c(-c2ccc(O)cc2)sc2cc(O)ccc12` [RALOXIFENE], the IC50 entry was “Not Active” and the Ki result is listed as “Not Active”.

Staying with this experiment, now noted: Not Active = under 50% inhibition at 10 µM; read-out: IC50.
For the compound `CC(=O)N1CCN(c2ccc(OCC3COC(Cn4ccnc4)(c4ccc(Cl)cc4Cl)O3)cc2)CC1` (centres undefined) [KETOCONAZOLE], the IC50 stood at 4.41 µM.

Staying with this experiment, now noted: Not Active = under 50% inhibition at 10 µM; read-out: Ki.
Regarding `CC(=O)N1CCN(c2ccc(OCC3COC(Cn4ccnc4)(c4ccc(Cl)cc4Cl)O3)cc2)CC1` (centres undefined) [KETOCONAZOLE], the Ki was determined as 1.51 µM.

System in a further experiment: not listed separately
Nature of the experiment: DRUGMATRIX: Potassium Channel [KATP] radioligand binding (ligand: [3H] Glyburide). It is filed as cell membranes, Membrane. To be noted: hit-t15; Not Active = under 50% inhibition at 10 µM.
Consider `O=C(c1ccc(OCCN2CCCCC2)cc1)c1c(-c2ccc(O)cc2)sc2cc(O)ccc12` [RALOXIFENE], for which the half-maximal inhibitory concentration (IC50) result was “Not Active” and the Ki entry is recorded as “Not Active”.

The target of another experiment is Mu-type opioid receptor (Homo sapiens, UniProt P35372). Nature of the experiment: DRUGMATRIX: Opiate mu (OP3, MOP) radioligand binding (ligand: [3H] Diprenorphine). The settings on record: cho-k1; Not Active = under 50% inhibition at 10 µM. It is filed as cell membranes, CHO-K1, Membrane.
Mu-type opioid receptor, sequence (P35372 whole entry): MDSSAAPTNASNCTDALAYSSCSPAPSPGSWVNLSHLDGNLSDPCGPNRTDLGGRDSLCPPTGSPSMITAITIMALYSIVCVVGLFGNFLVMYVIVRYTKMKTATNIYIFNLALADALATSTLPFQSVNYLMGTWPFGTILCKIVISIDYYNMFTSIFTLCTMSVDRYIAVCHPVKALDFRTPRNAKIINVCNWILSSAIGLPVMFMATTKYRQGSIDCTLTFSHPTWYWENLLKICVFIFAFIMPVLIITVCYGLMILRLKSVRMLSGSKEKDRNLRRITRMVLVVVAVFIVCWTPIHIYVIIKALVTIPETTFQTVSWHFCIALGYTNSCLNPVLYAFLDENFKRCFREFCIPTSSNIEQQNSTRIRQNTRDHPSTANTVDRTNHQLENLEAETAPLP
`CC(=O)N1CCN(c2ccc(OCC3COC(Cn4ccnc4)(c4ccc(Cl)cc4Cl)O3)cc2)CC1` (centres undefined) [KETOCONAZOLE]: the IC50 result is “Not Active”.

System in the next experiment: not listed separately
The experiment is described as follows: DRUGMATRIX: Serotonin (5-Hydroxytryptamine) 5-HT3 radioligand binding (ligand: [3H] GR-65630). The format is cell membranes, Membrane. To be noted: hek293; Not Active = under 50% inhibition at 10 µM.
For the compound `CC(=O)N1CCN(c2ccc(OCC3COC(Cn4ccnc4)(c4ccc(Cl)cc4Cl)O3)cc2)CC1` (centres undefined) [KETOCONAZOLE], the IC50 result is “Not Active” and the Ki result was “Not Active”.
As for `O=C(c1ccc(OCCN2CCCCC2)cc1)c1c(-c2ccc(O)cc2)sc2cc(O)ccc12` [RALOXIFENE], the IC50 entry was “Not Active” and the Ki result was “Not Active”.

The next experiment has as its target Mitogen-activated protein kinase 3 (Homo sapiens, UniProt P27361). Nature of the experiment: DRUGMATRIX: Protein Serine/Threonine Kinase, ERK1 enzyme inhibition (substrate: Myelin Basic Protein). Set-up: species or system Escherichia coli. To be noted: Not Active = under 50% inhibition at 10 µM.
As for `CC(=O)N1CCN(c2ccc(OCC3COC(Cn4ccnc4)(c4ccc(Cl)cc4Cl)O3)cc2)CC1` (centres undefined) [KETOCONAZOLE], the IC50 result is “Not Active”.
Same read-out and setting: for `O=C(c1ccc(OCCN2CCCCC2)cc1)c1c(-c2ccc(O)cc2)sc2cc(O)ccc12` [RALOXIFENE] the value was “Not Active”.

The target of a further experiment is T1, Leukotriene C4 synthase (Cavia porcellus, UniProt A6XA80).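 Also: enzyme inhibition assay of leukotriene C4 synthase, using LTA4 as the substrate; in other assays of this panel Not Active means under 50% inhibition at 10 µM.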
T1 sequence (A6XA80 whole entry): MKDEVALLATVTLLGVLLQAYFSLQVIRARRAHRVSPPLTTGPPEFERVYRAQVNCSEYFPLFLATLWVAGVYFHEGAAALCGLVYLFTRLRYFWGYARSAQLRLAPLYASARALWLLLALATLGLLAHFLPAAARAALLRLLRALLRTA
It is filed as tissue-based, Lung.
Settings: not given
For the compound `CC(=O)N1CCN(c2ccc(OCC3COC(Cn4ccnc4)(c4ccc(Cl)cc4Cl)O3)cc2)CC1` (centres undefined) [KETOCONAZOLE], the IC50 result is recorded as “Not Active”.
On the same count and under the same terms, for `O=C(c1ccc(OCCN2CCCCC2)cc1)c1c(-c2ccc(O)cc2)sc2cc(O)ccc12` [RALOXIFENE] the value was “Not Active”.

The next experiment deals with Cannabinoid receptor 1 (Homo sapiens, UniProt P21554). The format is cell membranes, Chem-1, Membrane. The settings on record: chem-1.
Cannabinoid receptor 1, sequence (P21554 whole entry): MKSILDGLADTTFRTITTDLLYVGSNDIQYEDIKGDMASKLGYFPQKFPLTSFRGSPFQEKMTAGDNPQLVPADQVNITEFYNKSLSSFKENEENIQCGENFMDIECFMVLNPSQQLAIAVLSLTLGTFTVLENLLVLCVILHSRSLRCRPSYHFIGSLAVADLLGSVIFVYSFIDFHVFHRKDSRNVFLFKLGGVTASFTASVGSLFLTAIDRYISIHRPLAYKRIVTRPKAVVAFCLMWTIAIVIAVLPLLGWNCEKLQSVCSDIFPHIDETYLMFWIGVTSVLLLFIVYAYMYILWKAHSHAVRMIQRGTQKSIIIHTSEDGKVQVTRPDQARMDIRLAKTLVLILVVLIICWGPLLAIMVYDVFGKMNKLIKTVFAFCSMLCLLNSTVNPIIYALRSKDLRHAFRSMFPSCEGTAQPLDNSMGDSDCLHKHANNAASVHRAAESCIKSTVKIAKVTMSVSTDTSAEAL
Consider `CC(=O)N1CCN(c2ccc(OCC3COC(Cn4ccnc4)(c4ccc(Cl)cc4Cl)O3)cc2)CC1` (centres undefined) [KETOCONAZOLE], for which the IC50 result is “Not Active”.
Consider `O=C(c1ccc(OCCN2CCCCC2)cc1)c1c(-c2ccc(O)cc2)sc2cc(O)ccc12` [RALOXIFENE], for which the IC50 entry is recorded as “Not Active”.

The target in a further experiment is Platelet-activating factor receptor (Homo sapiens, UniProt P25105). It is filed as tissue-based. Also: in other assays of this panel Not Active means under 50% inhibition at 10 µM.
Platelet-activating factor receptor, sequence (P25105 whole entry): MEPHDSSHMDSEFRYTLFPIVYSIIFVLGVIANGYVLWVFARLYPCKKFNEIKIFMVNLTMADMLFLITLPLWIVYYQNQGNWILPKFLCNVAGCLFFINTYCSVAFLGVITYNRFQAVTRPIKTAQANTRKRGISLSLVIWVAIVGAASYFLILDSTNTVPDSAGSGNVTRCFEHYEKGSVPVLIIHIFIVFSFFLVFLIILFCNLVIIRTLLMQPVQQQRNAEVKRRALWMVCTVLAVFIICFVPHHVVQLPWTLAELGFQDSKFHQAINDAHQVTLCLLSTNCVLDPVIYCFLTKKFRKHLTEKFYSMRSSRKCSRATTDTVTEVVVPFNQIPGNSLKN
Settings: not given
Regarding `CC(=O)N1CCN(c2ccc(OCC3COC(Cn4ccnc4)(c4ccc(Cl)cc4Cl)O3)cc2)CC1` (centres undefined) [KETOCONAZOLE], the IC50 entry is given as “Not Active”.
For `O=C(c1ccc(OCCN2CCCCC2)cc1)c1c(-c2ccc(O)cc2)sc2cc(O)ccc12` [RALOXIFENE], the IC50 result is “Not Active”.

For the next experiment, the target named is T2, Receptor-type tyrosine-protein phosphatase C (Homo sapiens, UniProt P08575).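 Also: inhibition of CD45 enzyme activity measured using DiFMUP as substrate; in other assays of this panel Not Active means under 50% inhibition at 10 µM.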
T2 sequence (P08575 whole entry): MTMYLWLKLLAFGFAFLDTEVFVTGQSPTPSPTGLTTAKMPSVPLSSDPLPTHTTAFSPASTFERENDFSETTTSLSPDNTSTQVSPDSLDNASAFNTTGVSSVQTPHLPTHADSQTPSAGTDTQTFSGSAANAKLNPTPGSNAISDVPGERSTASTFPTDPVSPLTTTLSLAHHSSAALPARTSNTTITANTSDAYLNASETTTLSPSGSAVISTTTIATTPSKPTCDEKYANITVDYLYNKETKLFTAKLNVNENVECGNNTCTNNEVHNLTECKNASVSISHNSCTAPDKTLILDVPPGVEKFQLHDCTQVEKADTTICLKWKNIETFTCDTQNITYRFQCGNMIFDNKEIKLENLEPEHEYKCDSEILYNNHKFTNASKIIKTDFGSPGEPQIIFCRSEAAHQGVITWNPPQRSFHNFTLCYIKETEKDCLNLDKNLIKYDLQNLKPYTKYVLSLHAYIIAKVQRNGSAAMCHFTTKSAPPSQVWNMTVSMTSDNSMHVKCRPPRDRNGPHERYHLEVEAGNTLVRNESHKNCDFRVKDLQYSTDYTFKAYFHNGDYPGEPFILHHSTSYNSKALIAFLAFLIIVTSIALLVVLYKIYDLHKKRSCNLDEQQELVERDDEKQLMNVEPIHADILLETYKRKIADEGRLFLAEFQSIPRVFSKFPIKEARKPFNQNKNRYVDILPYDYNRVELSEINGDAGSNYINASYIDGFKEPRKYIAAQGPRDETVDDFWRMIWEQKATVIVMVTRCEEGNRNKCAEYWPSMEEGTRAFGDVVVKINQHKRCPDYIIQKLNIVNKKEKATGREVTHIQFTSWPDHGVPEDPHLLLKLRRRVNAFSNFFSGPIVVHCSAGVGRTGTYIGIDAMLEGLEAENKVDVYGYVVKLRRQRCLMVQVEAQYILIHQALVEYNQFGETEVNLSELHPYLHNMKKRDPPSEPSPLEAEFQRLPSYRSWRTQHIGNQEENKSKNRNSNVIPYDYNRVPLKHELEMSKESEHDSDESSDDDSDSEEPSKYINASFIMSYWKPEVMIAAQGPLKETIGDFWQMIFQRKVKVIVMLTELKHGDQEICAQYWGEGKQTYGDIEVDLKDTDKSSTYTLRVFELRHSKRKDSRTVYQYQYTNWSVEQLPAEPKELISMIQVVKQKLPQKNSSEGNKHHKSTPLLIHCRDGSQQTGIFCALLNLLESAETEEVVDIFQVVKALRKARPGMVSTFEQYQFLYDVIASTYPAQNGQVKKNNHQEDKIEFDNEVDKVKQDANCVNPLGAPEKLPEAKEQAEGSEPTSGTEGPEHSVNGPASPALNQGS
The arrangement: species or system Escherichia coli.
Settings: not given
Take `CC(=O)N1CCN(c2ccc(OCC3COC(Cn4ccnc4)(c4ccc(Cl)cc4Cl)O3)cc2)CC1` (centres undefined) [KETOCONAZOLE]: the IC50 entry is recorded as “Not Active”.
Same read-out and setting: for `O=C(c1ccc(OCCN2CCCCC2)cc1)c1c(-c2ccc(O)cc2)sc2cc(O)ccc12` [RALOXIFENE] the value was “Not Active”.

Another experiment has as its target T3, D(4) dopamine receptor (Homo sapiens, UniProt P21917).
T3 sequence (P21917 whole entry): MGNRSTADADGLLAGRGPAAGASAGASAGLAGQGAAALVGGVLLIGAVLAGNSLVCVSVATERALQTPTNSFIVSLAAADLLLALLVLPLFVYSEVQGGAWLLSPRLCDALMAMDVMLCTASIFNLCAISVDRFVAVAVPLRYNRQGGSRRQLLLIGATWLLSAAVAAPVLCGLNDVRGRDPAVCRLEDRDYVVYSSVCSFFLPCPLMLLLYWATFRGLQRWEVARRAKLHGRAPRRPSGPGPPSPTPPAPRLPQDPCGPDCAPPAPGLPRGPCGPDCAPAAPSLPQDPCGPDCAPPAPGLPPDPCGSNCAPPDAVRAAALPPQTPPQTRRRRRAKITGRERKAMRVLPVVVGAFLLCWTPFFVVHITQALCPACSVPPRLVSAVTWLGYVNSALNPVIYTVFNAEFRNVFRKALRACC
Nature of the experiment: DRUGMATRIX: Dopamine D4.2 radioligand binding (ligand: [3H] Spiperone). The format is cell membranes, Membrane. The settings on record: cho-k1; Not Active = under 50% inhibition at 10 µM.
Regarding `CC(=O)N1CCN(c2ccc(OCC3COC(Cn4ccnc4)(c4ccc(Cl)cc4Cl)O3)cc2)CC1` (centres undefined) [KETOCONAZOLE], the concentration for half-maximal inhibition (IC50) entry was “Not Active”.
On the same count and under the same terms, to `O=C(c1ccc(OCCN2CCCCC2)cc1)c1c(-c2ccc(O)cc2)sc2cc(O)ccc12` [RALOXIFENE] belongs “Not Active”.

The next experiment has as its target T4, C-X-C chemokine receptor type 1 (Homo sapiens, UniProt P25024). Also: in other assays of this panel Not Active means under 50% inhibition at 10 µM.
T4 sequence (P25024 whole entry): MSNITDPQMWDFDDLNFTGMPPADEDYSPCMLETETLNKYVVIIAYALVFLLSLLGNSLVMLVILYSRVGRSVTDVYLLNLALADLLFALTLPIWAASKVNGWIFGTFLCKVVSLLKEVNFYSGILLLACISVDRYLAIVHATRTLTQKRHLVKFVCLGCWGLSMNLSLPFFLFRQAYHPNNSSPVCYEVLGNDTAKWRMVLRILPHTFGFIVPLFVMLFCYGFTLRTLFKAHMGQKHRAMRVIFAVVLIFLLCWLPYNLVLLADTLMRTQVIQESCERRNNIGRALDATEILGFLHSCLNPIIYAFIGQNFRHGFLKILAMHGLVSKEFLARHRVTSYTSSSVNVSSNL
Settings: not given
In the case of `CC(=O)N1CCN(c2ccc(OCC3COC(Cn4ccnc4)(c4ccc(Cl)cc4Cl)O3)cc2)CC1` (centres undefined) [KETOCONAZOLE], the IC50 result was “Not Active”.
On the same count and under the same terms, for `O=C(c1ccc(OCCN2CCCCC2)cc1)c1c(-c2ccc(O)cc2)sc2cc(O)ccc12` [RALOXIFENE] the value was “Not Active”.
